pEC50: −log10 of the molar value. Structures can show the parent of a compound that is named as a salt.
Target: T1, human parathyroid cell Ca2+ receptor (hPCaR) (Homo sapiens, UniProt P41180)
T1 construct: expressed in transfected cells
T1 sequence (P41180 20-1078): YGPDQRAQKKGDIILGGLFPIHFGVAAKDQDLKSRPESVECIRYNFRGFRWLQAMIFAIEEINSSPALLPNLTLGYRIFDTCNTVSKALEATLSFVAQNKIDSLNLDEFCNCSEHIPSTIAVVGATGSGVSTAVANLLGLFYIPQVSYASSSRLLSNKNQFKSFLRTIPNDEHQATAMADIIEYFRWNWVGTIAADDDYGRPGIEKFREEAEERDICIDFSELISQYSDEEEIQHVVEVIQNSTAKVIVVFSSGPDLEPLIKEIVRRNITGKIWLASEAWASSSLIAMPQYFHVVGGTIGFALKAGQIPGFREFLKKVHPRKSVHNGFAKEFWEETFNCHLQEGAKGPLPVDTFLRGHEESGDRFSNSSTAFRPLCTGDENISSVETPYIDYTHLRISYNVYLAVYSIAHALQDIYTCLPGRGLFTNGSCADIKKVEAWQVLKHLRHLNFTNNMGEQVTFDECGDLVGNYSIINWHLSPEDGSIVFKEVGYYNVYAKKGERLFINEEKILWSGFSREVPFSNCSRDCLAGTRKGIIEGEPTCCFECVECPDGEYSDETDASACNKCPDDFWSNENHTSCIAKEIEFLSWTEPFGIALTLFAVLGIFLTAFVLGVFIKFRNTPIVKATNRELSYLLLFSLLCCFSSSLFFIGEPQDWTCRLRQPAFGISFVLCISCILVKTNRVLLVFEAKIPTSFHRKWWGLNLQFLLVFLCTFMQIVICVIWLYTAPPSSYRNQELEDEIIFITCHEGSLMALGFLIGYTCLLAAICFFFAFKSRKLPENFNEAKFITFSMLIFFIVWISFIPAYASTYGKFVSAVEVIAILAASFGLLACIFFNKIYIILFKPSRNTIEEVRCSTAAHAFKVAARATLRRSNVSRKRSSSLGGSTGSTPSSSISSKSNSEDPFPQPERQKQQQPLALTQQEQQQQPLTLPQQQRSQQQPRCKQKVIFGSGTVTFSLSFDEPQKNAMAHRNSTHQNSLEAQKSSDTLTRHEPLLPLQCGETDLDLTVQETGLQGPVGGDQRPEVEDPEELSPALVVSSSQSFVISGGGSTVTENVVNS
Test: [Ca2+]i fluorescence assay in HEK 293 4.0-7 cells expressing hPCaR
Assay type: cell-based
Conditions: buffer with 1 mM CaCl2
Procedure, shortened: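 HEK 293 clone 4.0-7 stably expressing human parathyroid Ca2+ receptor, seeded overnight, then loaded 90 min at room temperature with calcium dye in parathyroid cell buffer (pH 7.45) with 0.5% BSA and 1 mM CaCl2. Fluorescence after compound addition read at ex 485/em 530 nm.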

| pEC50 | Compound |
| --- | --- |
| > 7.00 | O=C(Nc1nc2ccccc2s1)N(CCNC1CCNCC1)CCC(c1ccccc1)c1ccccc1 [Example 143, 3-(benzo[d]thiazol-2-yl)-1-(3,3-diphenylpropyl)-1-(2-(piperidin-4-ylamino)ethyl)urea] |
| > 7.00 | O=C1CC[C@@H](NCCN(CCC(c2ccccc2)c2ccccc2)C(=O)Nc2nc3ccccc3s2)CN1 [Example 144, (R)-3-(benzo[d]thiazol-2-yl)-1-(3,3-diphenylpropyl)-1-(2-(6-oxopiperidin-3-ylamino)ethyl)urea] |
| > 7.00 | O=C(Nc1nc2ccccc2s1)N(CCN[C@@H]1CCCNC1)CCC(c1ccccc1)c1ccccc1 [Example 145, (R)-3-(benzo[d]thiazol-2-yl)-1-(3,3-diphenylpropyl)-1-(2-(piperidin-3-ylamino)ethyl)urea] |
| > 7.00 | O=C1CC[C@@H](NCCN(CCC(c2ccccc2)c2ccccc2)C(=O)Nc2nc(-c3ccccc3)c(Cl)s2)CN1 [Example 147, (R)-3-(5-chloro-4-phenylthiazol-2-yl)-1-(3,3-diphenylpropyl)-1-(2-(6-oxopiperidin-3-ylamino)ethyl)urea] |
| 6.00 to 7.00 | CC(C)(C)OC(=O)NCCN(CCC(c1ccccc1)c1ccccc1)C(=O)Nc1nc2ccccc2s1 [Example 148, {2-[3-Benzothiazol-2-yl-1-(3,3-diphenyl-propyl)-ureido]-ethyl}-carbamic acid tert-butyl ester] |
| 6.00 to 7.00 | O=C(Nc1nc2ccccc2s1)N(CCNCC1CCN(C(=O)OCc2ccccc2)CC1)CCC(c1ccccc1)c1ccccc1 [Example 149, 4-({2-[3-Benzothiazol-2-yl-1-(3,3-diphenyl-propyl)-ureido]-ethylamino}-methyl)piperidine-1-carboxylic acid benzyl ester] |
| 5.30 to 6.00 | CN(C)CC(C)(C)CNCCN(CCC(c1ccccc1)c1ccccc1)C(=O)Nc1nc2ccccc2s1 [Example 150, 3-Benzothiazol-2-yl-1-[2-(3-dimethylamino-2,2-dimethyl-propylamino)-ethyl]-1-(3,3-diphenyl-propyl)-urea trihydrochloride] |
| 6.00 to 7.00 | CCOC(=O)CNCCN(CCC(c1ccccc1)c1ccccc1)C(=O)Nc1nc2ccccc2s1 [Example 151, {2-[3-Benzothiazol-2-yl-1-(3,3-diphenyl-propyl)-ureido]-ethylamino}-acetic acid ethyl ester] |
| 5.30 to 6.00 | CCOC(=O)C1CC1CNCCN(CCC(c1ccccc1)c1ccccc1)C(=O)Nc1nc2ccccc2s1 (centres unmarked) [Example 152, 2-({2-[3-Benzothiazol-2-yl-1-(3,3-diphenyl-propyl)-ureido]-ethylamino}-methyl)cyclopropanecarboxylic acid ethyl ester] |
| 6.00 to 7.00 | COC(CNCCN(CCC(c1ccccc1)c1ccccc1)C(=O)Nc1nc2ccccc2s1)OC [Example 153, 3-Benzothiazol-2-yl-1-[2-(2,2-dimethoxy-ethylamino)-ethyl]-1-(3,3-diphenyl-propyl)urea] |
| 6.00 to 7.00 | COc1ccc(CNCCN(CCC(c2ccccc2)c2ccccc2)C(=O)Nc2nc3ccccc3s2)cn1 [Example 154, 3-Benzothiazol-2-yl-1-(3,3-diphenyl-propyl)-1-{2-[(6-methoxy-pyridin-3-ylmethyl)amino]-ethyl}-urea] |
| 5.30 to 6.00 | O=C(Nc1nc2ccccc2s1)N(CCNC1CCSCC1)CCC(c1ccccc1)c1ccccc1 [Example 155, 3-Benzothiazol-2-yl-1-(3,3-diphenyl-propyl)-1-[2-(tetrahydro-thiopyran-4-ylamino)ethyl]-urea] |
| 5.30 to 6.00 | O=C(Nc1nc2ccccc2s1)N(CCNC1CCOCC1)CCC(c1ccccc1)c1ccccc1 [Example 156, 3-Benzothiazol-2-yl-1-(3,3-diphenyl-propyl)-1-[2-(tetrahydro-pyran-4-ylamino)-ethyl]-urea] |
| > 7.00 | CC1OCCC1NCCN(CCC(c1ccccc1)c1ccccc1)C(=O)Nc1nc2ccccc2s1 (centres unmarked) [Example 157, 3-Benzothiazol-2-yl-1-(3,3-diphenyl-propyl)-1-[2-(2-methyl-tetrahydro-furan-3-ylamino)-ethyl]-urea] |
| 6.00 to 7.00 | CC(C)(C)OC(=O)CN1CCC(NCCN(CCC(c2ccccc2)c2ccccc2)C(=O)Nc2nc3ccccc3s2)CC1 [Example 158, (4-{2-[3-Benzothiazol-2-yl-1-(3,3-diphenyl-propyl)-ureido]-ethylamino}-piperidin-1-yl)acetic acid tert-butyl ester] |
| 6.00 to 7.00 | CC(C)(C)OC(=O)N1CCC(NCCN(CCC(c2ccccc2)c2ccccc2)C(=O)Nc2nc3ccccc3s2)CC1 [Example 159, 4-{2-[3-Benzothiazol-2-yl-1-(3,3-diphenyl-propyl)-ureido]-ethylamino}-piperidine-1-carboxylic acid tert-butyl ester] |
| 6.00 to 7.00 | O=C(O)CNCCN(CCC(c1ccccc1)c1ccccc1)C(=O)Nc1nc2ccccc2s1 [Example 161, {2-[3-Benzothiazol-2-yl-1-(3,3-diphenyl-propyl)-ureido]-ethylamino}-acetic acid] |
| > 7.00 | O=C(O)CN1CCC(NCCN(CCC(c2ccccc2)c2ccccc2)C(=O)Nc2nc3ccccc3s2)CC1 [Example 162, (4-{2-[3-Benzothiazol-2-yl-1-(3,3-diphenyl-propyl)-ureido]-ethylamino}-piperidin-1-yl)acetic acid] |
| 6.00 to 7.00 | CN(CCN(CCC(c1ccccc1)c1ccccc1)C(=O)Nc1nc2ccccc2s1)C1CCCCC1 [Example 163, 3-Benzothiazol-2-yl-1-[2-(cyclohexyl-methyl-amino)-ethyl]-1-(3,3-diphenyl-propyl)-urea] |
| 6.00 to 7.00 | CN(CCN(CCC(c1ccccc1)c1ccccc1)C(=O)Nc1nc(-c2ccccc2)cs1)C1CCCCC1 [Example 164, 1-[2-(Cyclohexyl-methyl-amino)-ethyl]-1-(3,3-diphenyl-propyl)-3-(4-phenyl-thiazol-2-yl)-urea] |
| 6.00 to 7.00 | CC(C)(C)OC(=O)N1CCC(C(=O)NCCN(CCC(c2ccccc2)c2ccccc2)C(=O)Nc2nc3ccccc3s2)CC1 [Example 165, 4-{2-[3-Benzothiazol-2-yl-1-(3,3-diphenyl-propyl)-ureido]-ethylcarbamoyl}-piperidine-1-carboxylic acid tert-butyl ester] |
| > 7.00 | O=C(NCCN(CCC(c1ccccc1)c1ccccc1)C(=O)Nc1nc2ccccc2s1)C1CCNCC1 [Example 166, Piperidine-4-carboxylic acid {2-[3-benzothiazol-2-yl-1-(3,3-diphenyl-propyl)-ureido]-ethyl}-amide] |
| 6.00 to 7.00 | CS(=O)(=O)NCCN(CCC(c1ccccc1)c1ccccc1)C(=O)Nc1nc2ccccc2s1 [Example 167, N-{2-[3-Benzothiazol-2-yl-1-(3,3-diphenyl-propyl)-ureido]-ethyl}-methanesulfonamide] |
| 5.30 to 6.00 | CCCS(=O)(=O)NCCN(CCC(c1ccccc1)c1ccccc1)C(=O)Nc1nc2ccccc2s1 [Example 168, Propane-1-sulfonic acid {2-[3-benzothiazol-2-yl-1-(3,3-diphenyl-propyl)-ureido]-ethyl}-amide] |
| 5.30 to 6.00 | N#Cc1ccc(S(=O)(=O)NCCN(CCC(c2ccccc2)c2ccccc2)C(=O)Nc2nc3ccccc3s2)cc1 [Example 169, N-{2-[3-Benzothiazol-2-yl-1-(3,3-diphenyl-propyl)-ureido]-ethyl}-4-cyanobenzenesulfonamide] |
| 6.00 to 7.00 | CC(=O)Nc1ccc(S(=O)(=O)NCCN(CCC(c2ccccc2)c2ccccc2)C(=O)Nc2nc3ccccc3s2)cc1 [Example 170, N-(4-{2-[3-Benzothiazol-2-yl-1-(3,3-diphenylpropyl)-ureido]-ethylsulfamoyl}-phenyl)acetamide] |
| 6.00 to 7.00 | CN(C)S(=O)(=O)NCCN(CCC(c1ccccc1)c1ccccc1)C(=O)Nc1nc2ccccc2s1 [Example 174, N,N-dimethylamino-sulfonyl-{2-[3-benzothiazol-2-yl-1-(3,3-diphenyl-propyl)-ureido]-ethyl}-amide] |
| 6.00 to 7.00 | O=C(Nc1nc2ccccc2s1)N(CCO)CCC(c1ccccc1)c1ccccc1 [Example 175, 3-Benzothiazol-2-yl-1-(3,3-diphenylpropyl)-1-(2-hydroxy-ethyl)-urea] |
| 6.00 to 7.00 | CS(=O)(=O)Nc1ccc(-c2nc(NC(=O)NCCC(c3ccccc3)c3ccccc3)sc2Cl)cc1 [Example 176, 1-(5-chloro-4-(4-(methylsulfonamido)phenyl)thiazol-2-yl)-3-(3,3-diphenylpropyl)urea] |

Reference: patent US20080125424A1, “Derivatives of urea and related diamines, methods for their manufacture, and uses therefor” (priority 2006, published 2008)
